Reference: article PMC6958375 (Pharmaceuticals, 2019)
“Also recorded” adds a separate entry of the source. Read-outs that look alike come from different tables or passages of the source.

Columns and labels:
[1] = tested on: HL60 cells; assay: Cell growth assay, HL60; type: cell-based
Experimental: (§1) Dr. Elda Tagliabue (Molecular Targeting Unit, Department of Experimental Oncology and Molecular Medicine, Fondazione Institute of Hospitalization and Scientific Care, National Cancer Institute, Milan, Italy) kindly provided us the human breast cancer cell lines: MDA-MB-231(ATCC: HTB-26—Rockville, MD, USA) and SUM 149 (SUM149PT—Asterand Bioscience Detroit, MI). The first was cultured in RPMI-1640 and the second was cultured in DMEM/F-12 supplemented with insulin (5 μg/mL). The cells were authenticated using the short tandem repeat profiling method in their Institute. Prof. Giulio Ghersi (STEBICEF Department, University of Palermo, Italy) kindly provided us the non-tumorigenic cell line 1-7HB2 (ECACC 10081201—Cancer Research Technology, London, UK) that was cultured in DMEM low glucose supplemented with hydrocortisone (5 μg/mL) and insulin (10 μg/mL). HL60, obtained from ATCC® (CCL-240, Rockville, MD, USA), and its variant HL60R, obtained by exposure to gradually increasing concentrations of doxorubicin, were cultured in RPMI-1640. All media were supplemented with 10% heat-inactivated fetal calf serum, 2 mM L-glutamine, 100 U/mL penicillin and 100 μg/mL streptomycin (all reagents were from EuroClone S.p.A., Milan, Italy; GE Healthcare Life Sciences, Logan, UT, USA). All cell lines were cultured in a humidified atmosphere at 37 °C in 5% CO2.
(§2) The cells were seeded at 2 × 10^4 cells/well onto 96-well plates and incubated at 37 °C overnight; at time 0, the medium was replaced with fresh complete medium supplemented of compounds at the indicated concentrations. Following 72 h of treatment, 16 μL of a commercial solution obtained from Promega Corporation (Madison, WI, USA) containing 3-(4,5-dimethylthiazol- 2-yl)-5-(3-carboxy methoxyphenyl)-2-(4-sulphophenyl)-2H-tetrazolium (MTS) and phenazine ethosulfate were added. After a incubation in a humidified atmosphere at 37 °C in 5% CO2, the bioreduction of MTS dye was evaluated by measuring the absorbance of each well at 490 nm, using a microplate absorbance reader (iMark Microplate Reader; Bio-Rad Laboratories, Inc., Hercules, CA, USA). Cell growth inhibition was expressed as a percentage (mean ± SE) of the absorbance of the control cells.

[2] = tested on: SUM 149 cells; assay: Pro-oxidant effect by cell counting with NAC, SUM 149; conditions: for Cell Viability (%): SUM 149, cell counting, mean ± SE
Experimental: (§3) Pro-oxidant effects were examined by cell counting, adding N-acetyl-L-cysteine (NAC), an antioxidant molecule, 1h before compounds. Results were expressed as mean ± standard error (SE) of at least three different experiments performed in duplicate. All the chemicals were supplied by Sigma Aldrich Srl, Milan, Italy.

[3] = DPPH free radical scavenging assay; type: biochemical; conditions: DPPH reduction, 1 h in the dark at room temperature, absorbance 517 nm
Experimental: The antioxidant activity was evaluated by the DPPH stable radical method. Trolox (6-hydroxy-2,5,7,8-tetramethyl-chroman-2-carboxylic acid) curve was used as the positive control. 100 μL of sample was added to aliquots of a solution made up with DPPH (4.8 mg) in MeOH (200 mL), and the mixture was incubated in the dark, for 1 h at room temperature. The absorbance was measured using a UV-VIS spectrophotometer, at 517 nm. The results were plotted as the percentage of absorbance disappearance at 517 nm [(1-A/A0) × 100] against the amount of sample divided by the initial concentration of DPPH; lower absorbance values of reaction mixture indicate higher free radical scavenging activity. ED50 corresponds to micrograms of fraction able to consume half the amount of free radical divided by micromoles of initial DPPH. The results were expressed as antiradical capacity (ARC), which is the inverse of ED50. Each point was acquired in triplicate.

[4] = tested on: HL60R cells; assay: Cell growth assay, multidrug resistant HL60R; type: cell-based; conditions: read-out: HL60 R IC50
Experimental: as §1, §2

[5] = tested on: NF-κB (p65 subunit); assay: NF-κB DNA-binding activity (TransAM), SUM 149 nuclear extracts; type: cell-based, human; conditions: SUM 149, compounds at IC50 values, 24 h of treatment
Excerpt: (§4) The DNA-binding capacity of NF-κB (p65 subunit) was defined in the nuclear extracts of SUM 149 and MDA-MB-231 cells using the TransAM NF-κB and Nuclear Extract kits (Active Motif, Carlsbad, CA, USA). The determination of binding capacity was based on a 96-well plate, on which an oligonucleotide containing the NF-κB consensus binding site was fixed. […] After addition of a horseradish peroxidase-conjugated secondary antibody, a sensitive colorimetric readout was quantified by densitometry (iMark Microplate Reader; Bio-Rad Laboratories, Inc.). The control of specificity of the assay carried out according to the indications of manufacturer’s protocol. The results were expressed as arbitrary units: one unit indicated the DNA binding capacity exerted by 2.5 μg whole cell extract from Jurkat cells/microgram of protein from the nuclear extracts. Jurkat cells, stimulated with 12-O-tetradecanoylphorbol-13-acetate and calcium ionophore, are the positive control for NF-κB p65 activation.

[6] = tested on: MDA-MB-231 cells; assay: Cell growth assay (MTS), MDA-MB-231; type: cell-based, human; conditions: 72 h of treatment, mean ± SE
Experimental: as §1, §2

[7] = tested on: Survivin; assay: Western blot of Survivin in SUM 149 cells; type: cell-based, human; conditions: SUM 149, 24 h, compound at IC50
Excerpt: (§5) In order to verify if the three analogues alter the expression of some targets of NF-κB, like curcumin, western blot analysis was used. […] In line with the results of NF-κB DNA-binding activity inhibition, only Compounds 1 and 3 caused a decrease of expression of some targets in the same cell lines. In particular, in SUM 149 cells only Compound 3 caused a decreased expression of Survivin (a 55% of reduction respect to control) and Bcl-2 (a 48% of reduction respect to control), while in MDA-MB-231 cells only Compound 1 caused a reduction of IAP1 expression (a 32% of reduction with respect to the control) (Figure 8 and Figure 9).
(§6) Whole-cell lysates were obtained from breast cancer cells using RIPA buffer (Santa Cruz Biotechnology Inc., Dallas, TX, USA) and 25 μg protein was subjected to 10% SDS-PAGE and transferred to Hybond-P membranes (GE Healthcare Europe GmbH, Freiburg, Germany). Filters were incubated with primary antibodies raised against β-actin (Sigma-Aldrich Srl, Milan, Italy), Bcl-2 (Santa Cruz Biotechnology Inc., Dallas, TX, USA), XIAP (Cell Signaling Technology, Danvers, MA), Survivin (Novus Biologicals, Littleton, CO), IAP1 (Cell Signaling Technology, Danvers, MA). […]
(§7) Immunoblots were quantified by densitometry, the data were expressed as arbitrary units (protein/β-actin).

[8] = tested on: 1-7HB2 cells; assay: Cell growth assay (MTS), normal cell line 1-7HB2; type: cell-based; conditions: cell growth inhibition, 72 h of treatment, mean ± SE
Experimental: as §1, §2

[9] = tested on: SUM 149 cells; assay: Cell growth assay (MTS), SUM 149; type: cell-based, human; conditions: 72 h of treatment, mean ± SE
Experimental: as §1, §2

[10] = tested on: MDA-MB-231 cells; assay: Pro-oxidant effect by cell counting with NAC, MDA-MB-231
Experimental: as §3

[11] = tested on: Bcl-2; assay: Western blot of Bcl-2 in SUM 149 cells; type: cell-based, human; conditions: SUM 149, 24 h, compound at IC50
Excerpt: as §5, §6, §7

[12] = tested on: NF-κB (p65 subunit); assay: NF-κB DNA-binding activity (TransAM), MDA-MB-231 nuclear extracts; type: cell-based, human; conditions: MDA-MB-231, compounds at IC50 values, 8 h of treatment
Excerpt: as §4

[13] = tested on: IAP1; assay: Western blot of IAP1 in MDA-MB-231 cells; type: cell-based, human; conditions: MDA-MB-231, 8 h, compound at IC50
Excerpt: as §5, §6, §7

[14] = acute promyelocytic leukemia HL60, cell growth assay, read-out: HL60 IC50
[15] = multidrug resistant variant of HL60, cell growth assay
[16] = cell growth inhibition, read-out: SUM149 IC50 (converted)

4-phenylsulfanyl-(1E,6E)-1,7-bis(4-hydroxy-3-methoxyphenyl)hepta-1,6-diene-3,5-dione [Compound 3]
IC50 [1, 14]: < 1 µM | Cell Viability (%) ([2]; NAC 2 mM 1 h before compound at its IC50): 14.0 ± 4.6% | Cell Viability (%) ([2]; compound alone at its IC50 (curc 14 μM, 1 11 μM, 2 13 μM, 3 14 μM)): 34.0 ± 2.1% | ED50 [3]: 19.2 µM | IC50 [4, 15]: 6.7 µM | NF-κB DNA-binding activity [5]: stronger decrease than curcumin | IC50 ([6]; cell growth inhibition): 15 ± 0.85 µM | reduction of Survivin expression respect to control [7]: 55% | IC50 [8]: 12.5 ± 0.43 µM | IC50 [9, 16]: 13.5 ± 0.88 µM | Cell Viability (%) ([10]; MDA-MB-231, cell counting, compound alone at its IC50 (curc 25 μM, 1 18 μM, 2 20 μM, 3 15 μM), mean ± SE): 25.6 ± 0.7% | reduction of Bcl-2 expression respect to control [11]: 48% | NF-κB DNA-binding activity [12]: NF-κB inhibitors

COc1cc(/C=C/C(=O)CC(=O)/C=C/c2ccc(O)c(OC)c2)ccc1O [Curcumin, reference compound]
IC50 ([1]; Homo sapiens, HL-60, read-out: HL60 IC50): 47.5 µM | IC50 ([4]; HL60R): 40.5 µM | IC50 ([6]; Homo sapiens, MDA-MB-231, cell growth inhibition): 25.5 ± 0.35 µM | IC50 [8]: 37.5 ± 0.51 µM | IC50 ([9]; Homo sapiens, SUM149, cell growth inhibition): 14 ± 0.29 µM

Cc1c(C)c2c(c(C)c1O)CCC(C)(C(=O)O)O2 (stereo not drawn) [Trolox, 6-hydroxy-2,5,7,8-tetramethyl-chroman-2-carboxylic acid, reference compound]
ED50 [3]: 12.0 µM

COc1cc(/C=C/C(=O)/C=C(O)/C=C/c2ccc(OCc3ccc(CBr)cc3)c(OC)c2)ccc1OCc1ccc(CBr)cc1 [Compound 5, (1E,6E)-1,7-bis [3-methoxy-4(4-methylbromobenzyl)oxyphenyl]hepta-1,6-diene-3,5-dione]
MDA-MB-231 IC50 ([6]; cell growth inhibition): not reached | 1-7HB2 IC50 [8]: not reached | SUM149 IC50 ([9]; cell growth inhibition): not reached

(1E,6E)-1-(4-hydroxy-3-methoxyphenyl)-7-(3-methoxy-4-propargyloxyphenyl)hepta-1,6-diene -3,5-dione [Compound 1]
IC50 [1, 14]: 14 µM | IC50 [4, 15]: 7 µM | IC50 ([6]; cell growth inhibition): 18 µM | IC50 [8]: 20 µM | IC50 [9, 16]: 11.2 µM | reduction of IAP1 expression with respect to the control [13]: 32% | NF-κB DNA-binding activity [12]: NF-κB inhibitors; also recorded: greater effect than curcumin

C#CCOc1ccc(/C=C/C(=O)CC(=O)/C=C/c2ccc(OCC#C)c(OC)c2)cc1OC [Compound 2, (1E,6E)-1,7-bis(3-methoxy-4-propargyloxyphenyl)hepta-1,6-diene-3,5-dione]
IC50 [1, 14]: 17 µM | IC50 [4, 15]: 9 µM | IC50 ([6]; cell growth inhibition): 20 µM | 1-7HB2 IC50 [8]: not reached | IC50 [9, 16]: 13.2 ± 1.59 µM

COc1cc(/C=C/C(O)=C/C(=O)/C=C/c2ccc(OCc3ccc(CBr)cc3)c(OC)c2)ccc1O [Compound 4, (1E,6E)-1-(4-hydroxy-3-methoxyphenyl)-7-[3-methoxy-4(4-methylbromobenzyl)oxyphenyl] hepta-1,6-diene-3,5-dione]
MDA-MB-231 IC50 ([6]; cell growth inhibition): not reached | 1-7HB2 IC50 [8]: not reached | SUM149 IC50 ([9]; cell growth inhibition): not reached

CC(=O)N[C@@H](CS)C(=O)O [NAC, N-acetyl-L-cysteine]
viability at 2000 µM ([2]; Homo sapiens, SUM149, read-out: Cell Viability (%)): 100 ± 9.5% | viability at 2000 µM ([10]; Homo sapiens, MDA-MB-231, read-out: Cell Viability (%)): 87 ± 3.9%
